Reference: patent US20140057284A1, “PHOTOLUMINESCENT MOLECULAR COMPLEX AND METHOD FOR DETERMINING OF THE CONCENTRATION OF SAID MOLECULAR COMPLEX” (priority 2011, published 2014)

Key:
[1] = biological target: catalytic subunit of cAMP-dependent protein kinase (PKAc) (Homo sapiens, UniProt P17612); assay: Binding affinity to PKAc; settings: PKAc and some other PKs of the AGC group; in words
[2] = system: PKAc in living C9H6 cells; assay: Monitoring of kinase activity in living cells loaded with ARC-1139; type: cell-based; settings: H89 100 μM added after Forskolin
Procedure: CHO, C9H6 and HEK cells were cultured in F12 Nutrient Mixture supplemented with 10% fetal bovine serum, 2 mM L-glutamine, 100 U/ml penicillin and 100 μg/ml streptomycin at 37° C. in humidified atmosphere containing 5% CO2. In case of C9H6 cells, 300 μg/ml of Zeocine™ and 800 μg/ml of Geneticin® were additionally introduced to the nutrient mixture. Cells were seeded to 96-well plates (for plate reader experiments) and grown to 60%-80% confluency. The medium was replaced with fresh serum-free medium containing the luminescent probe ARC-1139 (10 μM) and incubated for 1 hour at 37° C. Subsequently, the cells were washed three times with PBS and analyzed on a PheraStar platereader with TRF optic modules [ex. 337(50) nm, em. 675(50) and 620(20) nm] using the time-resolved fluorescence measurement mode. Forskolin (final concentration of 25 μM) and H89 (final concentration of 100 μM) were added to the cells during the measurement (after 3 min and 7 min from the start of data acquisition, respectively)

PKAc = PKAc (Homo sapiens, UniProt P17612); assay: Measurement of dissociation kinetics of inhibitor-kinase complexes with ARC-1063; type: binding; settings: inhibitor 5-10 nM, PKAc 10 nM, 27° C., ARC-1063 100-300 nM
Procedure: Measurements of dissociation kinetics of non-labeled inhibitors from the inhibitor-kinase complexes (residence time) were carried out by mixing the solution of the examined inhibitor (5-10 nM) with PKAc (10 nM), and incubation of the solution for 15 min at 27° C., followed by addition of a high concentration of the luminescent probe ARC-1063 (final concentration of 100-300 nM), and measurement of the luminescence signal at 5 s time intervals (FIG. 10). The collected data were fitted to the first-order kinetic model yielding the dissociation rate constants for the examined inhibitors.

Compound	affinity of binding to PKAc [1]	also measured
O=S(=O)(NCCNC/C=C/c1ccc(Br)cc1)c1cccc2cnccc12 [H89]	–	luminescence from live cells loaded with ARC-1139 after Forskolin [2]: signal decreased
N=C(N)NCCC[C@@H](NC(=O)CCCCCNC(=O)c1ccc(-c2ccnc(N)n2)[se]1)C(=O)NCCCCCC(=O)N[C@H](CCCNC(=N)N)C(=O)N[C@H](CCCNC(=N)N)C(=O)N[C@H](CCCNC(=N)N)C(=O)N[C@H](CCCNC(=N)N)C(=O)N[C@H](CCCNC(=N)N)C(=O)N[C@H](CCCNC(=N)N)C(=O)N[C@H](CCCCN)C(N)=O [ARC-1138]	subnanomolar or low nanomolar	–
N=C(N)NCCC[C@@H](NC(=O)CCCCCNC(=O)c1ccc(-c2ccnc(N)n2)s1)C(=O)NCCCCCC(=O)N[C@H](CCCNC(=N)N)C(=O)N[C@H](CCCNC(=N)N)C(=O)N[C@H](CCCNC(=N)N)C(=O)N[C@H](CCCNC(=N)N)C(=O)N[C@H](CCCNC(=N)N)C(=O)N[C@H](CCCNC(=N)N)C(=O)N[C@H](CCCCNc1ccc([N+](=O)[O-])c2nonc12)C(N)=O [ARC-676]	subnanomolar or low nanomolar	–
CN[C@@H]1C[C@H]2O[C@@](C)([C@@H]1OC)n1c3ccccc3c3c4c(c5c6ccccc6n2c5c31)C(=O)NC4 [staurosporine]	–	Dissociation half-lives of PKAc complexes (PKAc): 12 s

Further lines, with some results ahead:

affinity of binding to PKAc [1]	Compound	also measured
subnanomolar or low nanomolar	N=C(N)NCCC[C@@H](NC(=O)[C@@H](CCCNC(=N)N)NC(=O)CCCCCNC(=O)[C@@H](CCCCN)NC(=O)CCCCCNC(=O)c1ccc(-c2ccncc2)s1)C(N)=O [ARC-1121]	–
subnanomolar or low nanomolar	N=C(N)NCCC[C@@H](NC(=O)CCCCCNC(=O)c1ccc(-c2ncnc3[nH]cnc23)s1)C(=O)NCCCCCC(=O)N[C@H](CCCNC(=N)N)C(=O)N[C@H](CCCNC(=N)N)C(=O)N[C@H](CCCNC(=N)N)C(=O)N[C@H](CCCNC(=N)N)C(=O)N[C@H](CCCNC(=N)N)C(=O)N[C@H](CCCNC(=N)N)C(=O)N[C@H](CCCCN)C(N)=O [ARC-1132]	–
subnanomolar or low nanomolar	N=C(N)NCCC[C@@H](NC(=O)CCCCCNC(=O)c1ccc(-c2ncnc3[nH]ccc23)s1)C(=O)NCCCCCC(=O)N[C@H](CCCNC(=N)N)C(=O)N[C@H](CCCNC(=N)N)C(=O)N[C@H](CCCNC(=N)N)C(=O)N[C@H](CCCNC(=N)N)C(=O)N[C@H](CCCNC(=N)N)C(=O)N[C@H](CCCNC(=N)N)C(=O)N[C@H](CCCCN)C(N)=O [ARC-1135]	–
subnanomolar or low nanomolar	N=C(N)NCCC[C@@H](NC(=O)CCCCCNC(=O)c1ccc(-c2ccnc(N)n2)s1)C(=O)NCCCCCC(=O)N[C@H](CCCNC(=N)N)C(=O)N[C@H](CCCNC(=N)N)C(=O)N[C@H](CCCNC(=N)N)C(=O)N[C@H](CCCNC(=N)N)C(=O)N[C@H](CCCNC(=N)N)C(=O)N[C@H](CCCNC(=N)N)C(=O)N[C@H](CCCCN)C(N)=O [ARC-668]	–
subnanomolar or low nanomolar	N=C(N)NCCC[C@@H](NC(=O)CCCCCNC(=O)c1ccc(-c2ccncn2)s1)C(=O)NCCCCCC(=O)N[C@H](CCCNC(=N)N)C(=O)N[C@H](CCCNC(=N)N)C(=O)N[C@H](CCCNC(=N)N)C(=O)N[C@H](CCCNC(=N)N)C(=O)N[C@H](CCCNC(=N)N)C(=O)N[C@H](CCCNC(=N)N)C(=O)N[C@H](CCCCN)C(N)=O [ARC-1129]	–
subnanomolar or low nanomolar	Cc1nccc(-c2ccc(C(=O)NCCCCCC(=O)N[C@H](CCCNC(=N)N)C(=O)NCCCCCC(=O)N[C@H](CCCNC(=N)N)C(=O)N[C@H](CCCNC(=N)N)C(=O)N[C@H](CCCNC(=N)N)C(=O)N[C@H](CCCNC(=N)N)C(=O)N[C@H](CCCNC(=N)N)C(=O)N[C@H](CCCNC(=N)N)C(=O)N[C@H](CCCCN)C(N)=O)s2)n1 [ARC-1123]	–
